Measured values from article PMC6995600, “Effects of Synergistic Inhibition on α-glucosidase by Phytoalexins in Soybeans” (Biomolecules, 2019).
Where two headings read alike, the source gives them in different places.

Experiments:
α-glucosidase = tested on: α-glucosidase; set-up: method as in PMID 24083955; conditions: 2 μM; cited from earlier work
[1] = target: T1, α-Glucosidase (from baker’s yeast) (Saccharomyces cerevisiae, UniProt P53341); assay: Enzyme kinetics for α-glucosidase (Michaelis–Menten, Lineweaver–Burk, Dixon plot); format: biochemical; conditions: for Mode of Inhibition: Lineweaver–Burk plots
T1 construct: purchased Sigma-Aldrich #63231-63-0
Method: The enzyme reaction was performed according to the above reaction conditions with polyphenols at various concentrations (1–30 μM). pNPG (1 mM) was added with polyphenols in 96-well plates, and α-glucosidase (1 U/mL) was added to initiate the enzyme reaction. The absorbances for each concentration of pNPG were then obtained by spectrophotometry (Victor3, PerkinElmer, Waltham, MA, USA). The inhibition modes of the polyphenols were determined using Michaelis–Menten and Lineweaver–Burk equations [23, 24]. The inhibition constant Ki is an indication of the potency of an inhibitor and equals the concentration required to produce half-maximal inhibition and can be determined by a Dixon plot. […] The αKi value is the inhibitor constant when the inhibitor (I) occupies the enzyme–substrate (ES) complex.
To define the mode of inhibition of the polyphenols, enzyme kinetics were performed with designated concentrations of pNPG. The maximum velocity (Vmax) for α-glucosidase was calculated from the nonlinear regression curve with five different concentrations of substrate (Figure 2). To determine the inhibition modes, Lineweaver–Burk plots were constructed for each of the inhibition modes, and the most suitable mode was selected using SigmaPlot 10.0 software.
Meanwhile, the inhibitor constant Ki indicates the potency of an inhibitor and is expressed as the concentration required to produce half-maximal inhibition and is determined by a Dixon plot. The initial slope v was determined for each concentration of each polyphenol. The reciprocal velocity (1/v) versus the […] (for 0.25, 0.5, 1, and 2 mM pNPG) was plotted. A single regression line for each concentration of the substrate was obtained, and Ki was calculated from the intersection of the four lines.

[2] = target: T1, α-Glucosidase (from baker’s yeast); assay: biochemical
Method: The activity of α-glucosidase was measured as described previously, with slight modifications. In brief, sodium phosphate buffer (0.1 M) was adjusted to 0.1 N HCl to pH 7.0 with a pH meter (Thermo Fisher Scientific Inc., Waltham, MA, USA). Solutions of pNPG (10 mM) and α-glucosidase (1 U/mL) were solubilized in 0.1 M sodium phosphate buffer (pH 7.0). All reagents were prepared shortly before use and warmed to 37 °C in a water bath (Il-shin Biobase, Pocheon, Korea). […] The substrate, pNPG (N1377, Sigma), was added into each well to a final concentration of 1 mM in a total volume of 200 μL, and 100 μL of α-glucosidase (1 U/mL) per well was then added. […] The absorbance values were plotted against time, and the rate (velocity) of product generation (α-glucosidase activity) was calculated from the linear range of the graph.

[3] = target: T1, α-Glucosidase (from baker’s yeast); assay: biochemical; remark: listed apart in the source
Method: Synergistic effects on α-glucosidase inhibition were measured using the same methods as above. […] We calculated the IC50 values of each polyphenol and the combinations, and we used the statistical differences of these values to assess synergistic effects.

[4] = pNPG 1 mM, pH 7.0, 37 °C, read-out: half-maximal inhibitory concentrations (IC50)
[5] = Substrate PNPG 0.125 mM, read-out: IC50
[6] = Substrate PNPG 0.25 mM, read-out: IC50
[7] = Substrate PNPG 0.5 mM, read-out: IC50
[8] = Substrate PNPG 1 mM, read-out: IC50

T1 sequence (P53341 whole entry): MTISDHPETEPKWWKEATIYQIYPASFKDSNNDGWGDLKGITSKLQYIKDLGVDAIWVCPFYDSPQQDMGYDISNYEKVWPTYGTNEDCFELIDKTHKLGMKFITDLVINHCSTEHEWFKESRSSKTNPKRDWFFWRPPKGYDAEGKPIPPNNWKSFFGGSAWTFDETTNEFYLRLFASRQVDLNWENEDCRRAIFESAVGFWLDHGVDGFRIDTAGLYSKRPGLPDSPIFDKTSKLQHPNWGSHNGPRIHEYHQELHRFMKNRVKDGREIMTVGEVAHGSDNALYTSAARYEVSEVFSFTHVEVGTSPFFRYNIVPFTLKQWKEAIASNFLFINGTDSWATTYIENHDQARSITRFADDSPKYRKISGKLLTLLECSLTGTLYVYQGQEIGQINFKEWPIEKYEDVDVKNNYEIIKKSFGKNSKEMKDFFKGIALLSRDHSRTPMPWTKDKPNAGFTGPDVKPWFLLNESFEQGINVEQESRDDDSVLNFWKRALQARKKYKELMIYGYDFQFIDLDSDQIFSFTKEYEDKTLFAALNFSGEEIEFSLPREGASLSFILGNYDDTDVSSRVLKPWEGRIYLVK

SMILES	Mode of Inhibition [1]	IC50 [2, 4] [µM]	Ki [1] [µM]	IC50 [3, 5] [µM]	IC50 [3, 6] [µM]	IC50 [3, 7] [µM]	IC50 [3, 8] [µM]	other results
O=c1c2cc(O)ccc2oc2cc(O)cc(O)c12 [1,3,7-trihydroxyxanthone]								inhibition (α-glucosidase): approximately 15%
C[C@H]1O[C@H](O[C@H]2[C@H](O)[C@@H](O)[C@@H](O[C@H]3[C@H](O)[C@@H](O)C(O)O[C@@H]3CO)O[C@@H]2CO)[C@H](O)[C@@H](O)[C@@H]1N[C@H]1C=C(CO)[C@@H](O)[C@H](O)[C@H]1O (some centres unmarked) [Acarbose, acarbose, reference compound]	Competitive							
O=c1c(-c2ccc(O)cc2)coc2cc(O)ccc12 [Daidzein, daidzein]	Uncompetitive							IC50 [2]: 20.2 ± 6.17 µM; IC50 ([3]; IC50, Substrate PNPG 0.125 mM): 59.2 ± 6.1 µM; IC50 ([3]; IC50, Substrate PNPG 0.25 mM): 27.6 ± 2.93 µM; IC50 ([3]; IC50, Substrate PNPG 0.5 mM): 23.2 ± 1.04 µM; IC50 ([3]; IC50, Substrate PNPG 1 mM): 20.5 ± 1.82 µM
CC1(C)C=Cc2c(ccc3c2OC[C@@]2(O)c4ccc(O)cc4O[C@@H]32)O1 [Glyceollin, glyceollin]	Competitive	13.2 ± 2.31	19 ± 4.45	16.6 ± 3.25	16.57 ± 0.15	19.1 ± 0.96	33.2 ± 3.97	Mode of Inhibition ([1]; listed as glyceollin): competitive inhibition
O=c1cc(-c2ccc(O)c(O)c2)oc2cc(O)cc(O)c12 [Luteolin, luteolin]	Mixed	11.9 ± 1.63	16.8 ± 9.6	18.6 ± 1.2	14.82 ± 0.01	15.4 ± 1.99	19.5 ± 1.59	
